Data published in paper PMC10653918, “Antibiotic that inhibits trans-translation blocks binding of EF-Tu to tmRNA but not to tRNA” (mBio, 2023).
≈ marks a conversion by molar mass, not a printed value. Where two headings read alike, the source gives them in different places.

What was measured:
[1] = tested on: EF-Tu•GTP (Escherichia coli MG1655 (pCA24N tufA, ASKA clone JW3301)); test: filter binding; conditions: 10 mM Mg2+, 44 mM KH2PO4, 6 mM K2HPO4, 10 mM MgCl2, 50 µg/mL BSA, pH 5.5 (RNA-binding mix; 34 µL mix + 16 µL EF-Tu), 0.1 nM RNA, 15 s at room temperature
[2] = tested on: translation; test: In vitro translation assay (DHFR with stop codon, no tmRNA-SmpB); conditions: DMSO control 100 ± 1
[3] = molecular target: E. coli EF-Tu•GTP (Escherichia coli, UniProt P0CE47); test: biochemical; assay type: binding
[4] = molecular target: EF-Tu•GDP (Escherichia coli, UniProt P0CE47); test: MST binding assay, EF-Tu•GDP; set-up: species or system E. coli
[5] = tested on: E. coli ∆tolC; test: microbe, parasite or virus in culture; assay type: cell-based; conditions: Escherichia coli
[6] = tested on: B. anthracis vegetative cells, germinants, and spores; conditions: in vitro and after ex vivo infection of macrophages; cited from earlier work
[7] = tested on: Francisella tularensis; conditions: compared with tetracycline; cited from earlier work
[8] = molecular target: EF-Tu•GTP H319A (Escherichia coli, UniProt P0CE47, H320A); test: MST binding assay, EF-Tu H319A mutant
[9] = molecular target: EF-Tu•GTP E378A (Escherichia coli, UniProt P0CE47, E379A); test: MST binding assay, EF-Tu E378A mutant
[10] = molecular target: EF-Tu•GTP R318K (Escherichia coli, UniProt P0CE47, R319K); test: MST binding assay, EF-Tu R318K mutant
[11] = molecular target: EF-Tu•GTP R318N (Escherichia coli, UniProt P0CE47, R319N); test: MST binding assay, EF-Tu R318N mutant
[12] = tested on: trans-translation; test: In vitro trans-translation assay (tagging of DHFR from nonstop template with tmRNA-SmpB); conditions: 10 µM compound; percentage of total DHFR in tagged DHFR band; DMSO control 90 ± 7
[13] = no KKL-55, 3'-alanylated with AlaRS

Molecule Ala-tRNAAla has a Kd [1, 13] of 280 nM.
With O=C(N[C@H](CO)[C@H](O)c1ccc([N+](=O)[O-])cc1)C(Cl)Cl [chlor, chloramphenicol, reference compound] the “translation efficiency ± SD” value ([2]; 100 µM compound) was 5 ± 3%.
With O=C(Nc1nnc(-c2ccc(F)cc2)o1)c1ccc(Cl)cc1 [KKL-35, reference compound] the “binding to EF-Tu” value [3] was “No binding”.
Molecule CCCn1nnnc1NC(=O)c1cccc(Cl)c1 [KKL-55] has a Kd [3] of 2000 nM, a Kd [4] of 1600 ± 20 nM and an MIC [5] of 2.3 µM (≈ 0.611 µg/mL). The bactericidal activity [6] was “bactericidal”, the MIC [7] was “comparable to that of tetracycline” and the Kd [8] was 2400 ± 100 nM. The Kd ([8]; MST, H319A EF-Tu•GTP) was “little impact on binding”, the Kd [9] was 2600 ± 200 nM and the Kd ([9]; MST, E378A EF-Tu•GTP) was “little effect on binding affinity”. For the same molecule, the Kd [10] was 2600 nM, the Kd [11] was > 20000 nM and the “translation efficiency ± SD” value ([2]; 100 µM compound) was 102 ± 2%. For the same molecule, the “tagging efficiency ± SD” value [12] was 30 ± 2%.
With O=C(CCCCC1SCC2NC(=O)NC21)NCCn1nnnc1NC(=O)c1cccc(Cl)c1 (centres unmarked) [KKL-201] the “translation efficiency ± SD” value ([2]; 10 µM compound) was 99 ± 6% and the “tagging efficiency ± SD” value [12] was 42 ± 2%.
With Ala-tmRNA the Kd ([1]; 25 µM KKL-55 (substantially reduced, no saturation), 3'-alanylated with AlaRS) was > 10000 nM and the Kd [1, 13] was 750 nM.
